Data reported in patent US4461901A, “Pyridyl containing 1,2-benzisothiazole-3-amine derivatives” (American Home Products Corporation, priority 1983, dated 1984).
Where a name gives a salt, the structure may show the parent alone.

How the values were obtained:
[1] = cited from earlier work
[2] = biological target: T1, histamine H2 receptor (Cavia porcellus, UniProt P47747); experiment: guinea pig heart atrium test: inhibition of histamine-induced positive chronotropic response in the spontaneously beating right atrium; details: read-out: pA2 Value (apparent dissociation constant of the H2 antagonist) (converted)
T1 construct: from tissue; host or cells: guinea pig right atrium (isolated, spontaneously beating)
T1 sequence (P47747 whole entry): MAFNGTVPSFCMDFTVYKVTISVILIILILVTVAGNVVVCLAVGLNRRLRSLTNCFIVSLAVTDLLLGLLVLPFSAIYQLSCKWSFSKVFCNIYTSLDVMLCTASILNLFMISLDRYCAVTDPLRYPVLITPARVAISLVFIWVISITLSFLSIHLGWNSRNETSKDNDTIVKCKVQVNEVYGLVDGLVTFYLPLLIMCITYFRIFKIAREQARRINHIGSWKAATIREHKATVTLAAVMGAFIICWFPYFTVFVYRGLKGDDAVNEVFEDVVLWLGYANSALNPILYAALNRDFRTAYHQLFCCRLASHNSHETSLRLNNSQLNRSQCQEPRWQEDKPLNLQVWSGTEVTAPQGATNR
Experimental: The guinea pig heart atrium test is carried out as follows.
A guinea pig right atrium is suspended at 1 g tension (isometric) in the thermostatically controlled (32° C.) tissue bath (10 ml) containing oxygenated (95% O2; 5% CO2) Krebs-Haenseleit buffer (pH 7.4). The tissue is allowed to stabilize over 1 hour. Individual contractions are recorded with a force-displacement transducer through a strain gauge coupler. A control dose-response curve to histamine in the above described tissue bath is obtained after which the tissue is washed 3 times and allowed to re-equilibrate to basal rate. The test compound is added to the tissue bath at the desired final concentration. Thirty minutes after addition of the compound, a fresh histamine dose response curve is again obtained. Then the response to histamine in the presence of antagonist is compared to the histamine control response. This procedure is repeated, using fresh tissues, for each concentration of antagonist tested.

[3] = tested on: gastric acid secretion; experiment: gastric secretion in the rat, modified Shay procedure of pylorus ligation; assay type: in vivo; details: 32 mg/kg, interduodenally (i.d.), male Charles River rats, four hours after ligation
Experimental: The procedures for these tests and the results for some of the compounds of the invention are presented at the end of the following examples, which will serve to illustrate the present invention.
The procedure for testing gastric secretion in the rat, a modification of the procedure of Shay et al., Gastroenterology, 26, 906-13 (1954) is carried out as follows.
Male Charles River rats weighing 200-300 grams are deprived of food but not water for 24 hours prior to use. Water is, however, withheld during the experiment. The rats are weighed, anesthetized, and the pylorus ligated according to the method of Shay et al. Treatment or vehicle control is then administered interduodenally (i.d.). Rats are housed 2/cage and sacrificed with CO2 four hours after ligation. The stomachs are removed, rinsed, and contents emptied into a graduated centrifuge tube. The tubes are centrifuged for 20 minutes at 2,000 RPM and the volume of gastric juice recorded. Any samples obviously contaminated by feces, food or hemolysis are eliminated. An aliquot of each is frozen for later analysis of Na^+, K^+ and Cl^- concentration. The pH is measured and 1 ml of gastric juice is titrated with 0.1N NaOH to a pH of 7.0-7.4. Titratable acid output is calculated in microequivalents and the percent inhibition of acid output is calculated as follows: [formula]

[4] = tested on: H2 histamine receptors; details: background statement; cited from earlier work

Q: Which confusional states ([1]; elderly patients) does the source give for `CN/C(=N/CCSCc1nc[nH]c1C)NC#N` [Cimetidine] here?
A: tendency to cause confusional states in elderly patients

Q: What about the anti-androgenic activity ([1]; patients) of the same compound?
A: anti-androgenic activity

Q: And the duration of action ([1]; patients)?
A: short duration of action

Q: For `Nc1ncccc1OCCCNC1=NS(=O)(=O)c2ccccc21` [Example 2, N-[3-[(2-amino-3-pyridinyl)oxy]propyl]-1,2-benzisothiazol-3-amine 1,1-dioxide, hydrochloride, hemihydrate], which Kb [2] is on record?
A: 10 nM

Q: With `Nc1cc(OCCCNC2=NS(=O)(=O)c3ccccc32)ccn1` [Example 3, N-[3-[(2-amino-4-pyridinyl)oxy]propyl]-1,2-benzisothiazol-3-amine 1,1 dioxide, hydrochloride, hemiethanolate] as the compound, how does the Kb [2] read?
A: 10 nM

Q: And the “% Inhibition (of acid output)” value [3]?
A: 57%

Q: Which “selective H2 antagonist activity versus cimetidine” value [4] does the source give for `CNC(=NC#N)NCCSCc1csc(N=C(N)N)n1` [tiotidine] here?
A: greater activity than cimetidine
